Values after ≈ are worked out from the molar mass of the structure shown. Like-named read-outs stand apart in the source and are kept apart here. Each block holds one compound with its values, some of them ahead of it.
Legend:
NF-κB = test: High throughput assay for NF-κB reporter activity (luciferase, stably transfected SH-SY5Y cells); format: cell-based, human; settings: for maximal fold induction: 24 h, read-out: Emax
Experimental: SH-SY5Y human neuroblastoma cell line was obtained from the American Tissue Culture collection (ATCC). A commercially available expression vector containing the NF-kB promoter enhancer region driving the firefly luciferase gene expression and a second plasmid containing the gene conferring resistance to blasticidin were used in a dual transfection approach to obtain a stable cell line. SH-SY5Y cells stably transfected with pNF-κB-luc/pEF6 were plated at 8,000 per well in a volume of 40 μl DMEM in either Corning white opaque, 384-well plates (Cat. No. 3570, Corning, Inc., Corning, N.Y.) or Corning black clear bottom, 384-well plates (Cat. No. 3712, Corning, Inc., Corning, N.Y.) and treated with test compounds for 24 hr at 37° C. Luciferase activity was measured as a reporter of NF-kB activation using the Bright-Glo Luciferase assay kit (Cat. No. E2620, Promega, Madison, Wis.) according to the manufacturer's instructions. Cell viability was measured using the CellTiter-Glo Luminescent Cell Viability assay kit (Cat. No. G7572, Promega, Madison, Wis.) according to the manufacturer's instructions. Briefly, cells were equilibrated at room temperature for 30 min prior to the addition of Bright-Glo to the white opaque plates or CellTiter-Glo to the black clear bottom plates. A volume of assay buffer equal to the volume of cell media was added to each well and incubated for five min to allow complete cell lysis. All procedures were performed in the dark. Luminescence was measured by the Synergy4 Multi-detection microplate reader (BioTek, Winooski, Vt.) within 15 min of lysis.

SOD2 [1] = test: SOD2 mRNA expression by quantitative RT-PCR in SH-SY5Y neuroblastoma cells; format: cell-based; settings: human SH-SY5Y, 1 μM, 6 h (FIG. 1A)
SOD2 [2] = test: SOD2 mRNA expression by quantitative RT-PCR in NSC-34 neuroblastoma cells; format: cell-based; settings: mouse NSC-34, 1 μM, 24 h (FIG. 1B)
SOD2 [3] = test: SOD2 protein expression and SOD activity in primary rat cortical cultures; format: cell-based; settings: for SOD2 protein expression: primary rat cortical cultures (FIG. 1C); for SOD activity: primary rat cortical cultures (FIG. 1D)
From the text: N=3-6/group, mean+/−SEM, *p<0.05, **p<0.01, 2-way ANOVA, post-hoc t-test.

inhibitory κB = test: Inhibitory κB expression levels; format: cell-based
[4] = tested on: glutamate-induced toxicity in primary cultures; test: Neuroprotection in vitro; format: cell-based
[5] = Plasma and brain levels in SOD1 G93A mice; format: in vivo, mouse; settings: 50 mg/kg I.P., within 30 minutes
Experimental: Before the studies above were initiated, congenic SOD1 G93A mice were dosed with 50 mg/kg of compound no. 1 and compound no. 2 via I.P. injection to rule out any toxicity issues prior to initiating the efficacy study (FIG. 2A-C).

[6] = Bioavailability / PK study (IV and PO); format: in vivo, mouse; settings: for oral bioavailability: I.V./P.O., 1 and 5 mg/kg; for half-life: read-out: plasma half-life (t1/2)
Experimental: The experiments will involve the administration of compounds to 5-6 week old CD1 male mice. Mice are dosed by either a 1 mg/kg IV bolus or 5 mg/kg oral gavage. Blood samples are collected by cardiac puncture at 0, 0.25, 0.5, 1, 2, 4, 6, 8, 12, and 24 hrs. There will be three mice per time point. Plasma concentration over time will be determined by LC/MS from which the standard PK parameters of clearance, volume of distribution, t1/2 and % F can be derived using WinNoLin software (Pharsight Inc.). This will require a total of 60 mice per compound. Plasma will be analyzed by reverse phase chromatography with MS/MS detection operating in the positive ion mode using multiple reaction monitoring using an internal standard and Applied Biosystems Analyst 1.4 software. Peak time (when maximum plasma drug concentration occurs), peak drug level [approximate maximum concentrations of drug in plasma (Cmax)] and tin for drug elimination will be estimated for each tested compound. Bioavailability (F) will be calculated from the ratio of AUCPO/AUCIV and expressed as a percentage. To determine levels in brain, six additional mice will be dosed with 1 mg/kg I.V. and sacrificed at 0.25 and 1 hr. Brain and spinal cord samples will be collected at these two time points, quick frozen in an ice box and kept at −75±15° C. All samples will be weighed and homogenized with phosphate buffered saline (PBS) by brain weight (g) to PBS volume (mL) ratio 1:3 before analysis. The actual concentration is the detected value multiplied by the dilution factor.

[7] = tested on: SOD1 G93A transgenic mouse; test: Efficacy in the SOD1 G93A transgenic mouse model of ALS; format: in vivo; settings: for progression to a score of 4: 25 mg/kg I.P. daily from day 96, 4-point severity score; for survival: SOD1 G93A males, 25 mg/kg I.P. daily from day 96
Experimental: Briefly, Congenic SOD1-G93A mice were dosed with up to 50 mg/kg of both compounds (IP) to evaluate any toxicity issues prior to initiating the efficacy study. Also, mice administered 20 mg of each compound had high plasma and brain levels at 30 minutes. Next, individually genotyped SOD1-G93A mice (Prize4life-Jackson Labs) were treated with each compound (25 mg/kg, IP) at disease onset (day 96). The treatment extended survival, reduced weight loss and improved the neurologic symptoms. […] Data document a 66% and an 81% lifespan extension for the compounds, respectively, at 50% survival in male mice. […] The average weight within the groups before the treatment was similar.
While compounds which increase SOD2 expression and activity have potential utility in a number of neurodegenerative diseases involving ROS overproduction, it was decided to test these two compounds in a mouse model of ALS for a variety of reasons, including the evidence for oxidative stress in ALS (described above), the ability of these compounds to induce SOD2 in a motor neuron-like mouse cell line (NSC-34; FIG. 1B), and the availability of a mouse model with dysfunction in SOD1 (human SOD1 G93A transgenic mouse; Jackson Laboratory). The pilot experiment involved treating six wildtype and six SOD1 G93A transgenic males on the C57BL/6 background with 25 mg/kg compound no. 1 and compound no. 2 I.P. daily, beginning around disease onset (day 96; FIG. 2A and FIG. 2B). Mouse survival and behavioral phenotype were observed based on guidelines from “Working with ALS mice: JAX handbook,” using a 4-point severity score (FIG. 2C).
Referring to FIG. 2A and FIG. 2B, SOD1 G93A mice received daily IP injections of saline (control) or compounds (25 mg/kg) starting on day 96.

SOD2 [8] = test: SOD2 mRNA expression in vitro (FIG. 5); format: cell-based; settings: FIG. 1A-D
From the text: While a number of new compounds derived from Ataluren and compound no. […] 1 and no. 2. […] Whether these and other compounds are capable of inducing SOD2 mRNA and protein activity in vitro and in vivo, in addition to their ability to protect neurons from hydrogen peroxide or glutamate-induced cell death (as in Carri et al. (2015) Frontiers in cellular neuroscience 9:41) and dysfunction/cell death in the SOD1 G93A transgenic mouse model will also be evaluated.

Solubility = format: physicochemical; settings: buffer, pH 7.4, aqueous buffer, kinetic from dmso stock
From the text: (§1) A standard panel of in vitro ADME assays will be utilized to assess drug-like properties of compounds and to inform subsequent in vivo PK studies. These assays include: (a) Permeability: MDCK (Madin Darby Canine Kidney) cells transfected with the MDR1 gene encoding for the multi-drug resistant transporter (Pgp) will be utilized to determine a compound's ability to permeate the membrane in apical to basolateral (A-B) and basolateral to apical (B-A) directions. The derived apparent permeability coefficient (Papp) provides an estimate of passive permeability; a ratio of Papp in the B-A/A-B direction gives an estimate of transporter efflux; (b) Solubility: Kinetic solubility is an important parameter for accurate determinations of the dose response. This is estimated using the shake flask method with a μSol Explorer (PION, Billerica, Mass.) at pH 7.4. Compounds are added as a DMSO solution to buffer. The average of two determinations at pH 7.4 will be reported. Solubility at pH 7.4 is relevant for in vitro assays; (c) Metabolic Stability: The potential for a high metabolic clearance compound is estimated using a liver microsome assay. […] The disappearance of the parent molecule is measured by liquid chromatography/mass spectroscopy (LC/MS) detection. […]

MDR/MDCK cells = test: Permeability in MDR/MDCK cells; format: in vitro ADME, Canine
From the text: as §1

[9] = Homo sapiens, SH-SY5Y, Table 2, no unit printed (text: fold)
[10] = Homo sapiens, SH-SY5Y, Table 2, unit not given (μM for nos. 3 and 20), read-out: EC50
[11] = Table 2, unit not given (μM for nos. 3 and 20)
[12] = Homo sapiens, SH-SY5Y, read-out: EC50

Compound: N-(4-(2-((2-Fluorophenyl)amino)thiazol-4-yl)benzyl)acetamide [Compound 20]
Emax (NF-κB): > 20 fold
Emax (NF-κB; Table 2, no unit printed (text: fold)): 27.58
EC50 (NF-κB; Table 2, unit not given (μM for nos. 3 and 20), read-out: EC50): 3.75 µM
EC50 (NF-κB; read-out: EC50): 4 µM

Compound: Cc1cccnc1Nc1nc(-c2ccccn2)cs1 [Compound 2, N-(3-Methylpyridin-2-yl)-4-(pyridin-2-yl)thiazol-2-amine]
SOD2 mRNA expression (SOD2 [1]): induce SOD2
SOD2 mRNA expression (SOD2 [2]): induce SOD2
SOD2 protein expression (SOD2 [3]): induce SOD2
SOD activity (SOD2 [3]): increase
inhibitory κB expression levels (inhibitory κB): do not effect inhibitory κB expression levels
neuroprotection in vitro [4]: neuroprotective in vitro
plasma and brain levels [5]: substantial plasma and brain levels
oral bioavailability [6]: lack of oral bioavailability
half-life ([6]; male, CD1, mouse, plasma): < 5 min
progression to a score of 4 [7]: delayed
survival [7]: significantly prolonged
maximal fold induction (NF-κB; [9]): 40
EC50 (NF-κB; [10]): 0.21 µM
SOD2 mRNA expression increase (SOD2 [8]): 2 fold

Compound: N#Cc1cccc(-c2csc(Nc3ccccc3F)n2)c1 [Compound 25]
EC50 (NF-κB; [10]): > 10 µM

Compound: O=C(O)c1cccc(-c2csc(Nc3ccccc3F)n2)c1 [Compound 3, 3-(2-((2-Fluorophenyl)amino)thiazol-4-yl)benzoic acid]
solubility (Solubility): 80 µM (≈ 25.1 µg/mL)
efflux (MDR/MDCK cells): no efflux was observed
permeability (MDR/MDCK cells): highly permeable
Cmax ([6]; male, CD1, mouse, plasma, oral, 5 mg/kg dose): 100 ng/mL
bioavailability ([6]; male, CD1, mouse, plasma, 1 mg/Kg IV and 5 mg/Kg po, read-out: orally bioavailable): 26%
EC50 (NF-κB; [10]): 0.84 µM
EC50 (NF-κB; [12]): ~1 µM

Compound: O=C(/C=C\Nc1ccccc1Br)c1ccc2c(c1)OCO2 [Compound 1, (Z)-1-(Benzo[d][1,3]dioxol-5-yl)-3-((2-bromophenyl)amino)Prop-2-en-1-one]
SOD2 mRNA expression (SOD2 [1]): induce SOD2
SOD2 mRNA expression (SOD2 [2]): induce SOD2
SOD2 protein expression (SOD2 [3]): induce SOD2
SOD activity (SOD2 [3]): increase
inhibitory κB expression levels (inhibitory κB): do not effect inhibitory κB expression levels
neuroprotection in vitro [4]: neuroprotective in vitro
plasma and brain levels [5]: substantial plasma and brain levels
oral bioavailability [6]: lack of oral bioavailability
half-life ([6]; male, CD1, mouse, plasma): < 5 min
progression to a score of 4 [7]: delayed
survival [7]: significantly prolonged
maximal fold induction (NF-κB; [9]): 26
EC50 (NF-κB; [10]): 0.5 µM
SOD2 mRNA expression increase (SOD2 [8]): 2 fold

Compound: Cc1noc(-c2cccc(-c3csc(Nc4ccccc4F)n3)c2)n1 [Compound 31]
EC50 (NF-κB; [11]): Inactive

Compound: CC(C)(O)c1cccc(-c2csc(Nc3ccccc3F)n2)c1 [Compound 21]
maximal fold induction (NF-κB; [9]): 18.9
EC50 (NF-κB; [10]): > 10 µM

Compound: Fc1ccccc1Nc1nc(-c2ccc(Cl)c(Cl)c2)cs1 [Compound 29]
EC50 (NF-κB; [10]): > 10 µM

Compound: O=C(O)c1cccc(-c2noc(-c3ccccc3F)n2)c1 [Ataluren, reference compound]
induction (NF-κB): 9-10 fold
EC50 (NF-κB; [12]): 1.5 µM

Compound: Fc1ccccc1Nc1nc(-c2ccc(OCC(F)(F)F)cc2)cs1 [Compound 24]
EC50 (NF-κB; [10]): > 10 µM

The next lines start with results.

EC50 (NF-κB; [10]): > 10 µM
Compound: Fc1ccc(-c2csc(Nc3ccccc3F)n2)cc1F [Compound 19]
maximal fold induction (NF-κB; [9]): 18.5

EC50 (NF-κB; [11]): Inactive
Compound: Fc1ccc(-c2csc(Nc3ccccc3F)n2)cc1 [Compound 43]

EC50 (NF-κB; [10]): > 10 µM
Compound: Fc1ccccc1Nc1nc(-c2ccc(C(F)(F)F)cc2)cs1 [Compound 26]

EC50 (NF-κB; [10]): > 10 µM
Compound: Fc1ccccc1Nc1nc(-c2cccc(Cl)c2)cs1 [Compound 17]
maximal fold induction (NF-κB; [9]): 14.5

EC50 (NF-κB; [10]): 9.35 µM
Compound: Fc1ccccc1Nc1nc(-c2cccc(C(F)(F)F)c2)cs1 [Compound 16]
maximal fold induction (NF-κB; [9]): 16

EC50 (NF-κB; [11]): Inactive
Compound: O=C(NC1CC1)c1cccc(-c2csc(Nc3ccccc3F)n2)c1 [Compound 28]

EC50 (NF-κB; [11]): Inactive
Compound: NC(=O)c1cccc(-c2csc(Nc3ccccc3F)n2)c1 [Compound 30]

EC50 (NF-κB; [10]): > 10 µM
Compound: N#Cc1ccc(-c2csc(Nc3ccccc3F)n2)cc1 [Compound 27]
